For test [1], the target named is T1, human A3AR (Homo sapiens, UniProt P0DMS8).
T1 sequence (P0DMS8 1-318): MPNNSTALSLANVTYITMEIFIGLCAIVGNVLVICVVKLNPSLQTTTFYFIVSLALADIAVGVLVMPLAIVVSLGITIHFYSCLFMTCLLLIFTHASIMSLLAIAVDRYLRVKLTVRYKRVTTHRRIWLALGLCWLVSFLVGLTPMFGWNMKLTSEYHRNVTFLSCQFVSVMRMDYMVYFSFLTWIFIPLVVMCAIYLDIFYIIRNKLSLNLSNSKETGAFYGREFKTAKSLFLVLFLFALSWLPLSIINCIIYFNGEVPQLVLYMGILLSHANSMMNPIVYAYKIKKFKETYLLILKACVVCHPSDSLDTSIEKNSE
The experiment in a line: NanoBRET kinetic competition association with AV039 as probe in Nluc-A3AR HEK293 cells. Type of test: binding. Also on record: expressed in transfected cells. To be noted: for Kinetics RT (probe AV039): reciprocal of koff, NanoBRET competition association with 40 nM AV039, cells; for Kd: read-out: Kinetics pKD (probe AV039) (converted). On the procedure:
(§1) The binding kinetics of unlabelled ligands was quantified using the competition association assay based on the theoretical framework by Motulsky and Mahan. NanoBRET and radioligand data were fitted into the competition association model using ‘kinetics of competitive binding’ to determine association and dissociation rate constants of the unlabelled compounds:
(§2) k1 and k2 values were generated from association kinetic experiments. k3, k4 and Bmax were then calculated, where k3 represents the kon (M^−1 min^−1) of the unlabelled ligand, k4 stands for the koff (min^−1) of the unlabelled ligand and Bmax equals the total binding (NanoBRET ratio or DPM). The residence time (RT) was calculated as the reciprocal of the ligand dissociation rate constant as follows: RT=1/koff
For orientation: BRET reads energy transfer from a luciferase to a nearby fluorophore.

Test [2] concerns the target T1, human A3AR. In words: NanoBRET kinetic competition association with XAC-S-ser-S-tyr-X-BY630 as probe in Nluc-A3AR HEK293 cells. The format is binding. Also on record: expressed in transfected cells. To be noted: for Kinetics RT (probe XAC-S-ser-S-tyr-X-BY630): reciprocal of koff, NanoBRET competition association with 20 nM XAC-S-ser-S-tyr-X-BY630, cells. How it is done:
as §1
The residence time (RT) was calculated as the reciprocal of the ligand dissociation rate constant as follows: RT=1/koff

Test [3] deals with T1, human A3AR. The experiment in a line: NanoBRET equilibrium competition binding with AV039 as probe in Nluc-A3AR HEK293 cells.
Protocol: For saturation and competition binding assays, the required concentration of fluorescent ligand and competing ligand was added simultaneously and incubated for 1 h (for AV039) or 3 h (for XAC-S-ser-S-tyr-X-BY630) at 37 °C (no CO2). After 1 h, 10 μM furimazine was added to each well and the plate incubated for 5 min at 37 °C before reading. […] For association kinetic experiments, following the furimazine incubation, the required concentration of fluorescent ligand in the presence or absence of 10 μM MRS1220 was added simultaneously and the plate read immediately once per minute for up to 3 h at 37 °C. For kinetic competition association assays, after furimazine incubation, either XAC-S-ser-S-tyr-X-BY630 (20 nM) or AV039 (40 nM) were added simultaneously with the required concentration of unlabelled ligand or 10 μM MRS1220 to determine non-specific binding and read once per minute for the indicated times at 37 °C. For all NanoBRET experiments, fluorescence and luminescence were read using a PHERAstar FS plate reader (BMG Labtech, Ortenberg, Germany). Filtered light emissions were measured at 460 nm (80 nm band pass) and at > 610 nm (long pass) for the BY630 labelled ligands and at 450 nm (80 nm band pass) and > 550 nm (long pass) for the BYFL labelled ligand. […]
In test [4] the target is T1, human A3AR. In words: [3H]PSB-11 radioligand equilibrium displacement in Nluc-A3AR HEK293 membranes. Type of test: binding. Also noted: expressed in transfected cells. As to conditions: read-out: Equilibrium competition pKi (converted). On the procedure: Prior to all experiments, membranes from HEK293 membranes expressing human Nluc-A3AR were diluted to 20 μg/well in a total volume of 100 μL/well assay buffer (50 mM Tris-HCl, 5 mM MgCl2, supplemented with 0.01% CHAPS and 1 mM EDTA, pH 7.4) and homogenised using an IKA T10 Ultra-Turrax disperser in 3 × 5 s bursts at 15,000 rpm. For equilibrium displacement assays, membranes were placed in 96-well microplates at 10 °C and the required concentration of competing agonist was added in the presence of a final concentration of ~ 10 nM [^3H] […] For all experiments, incubation was terminated by rapid filtration performed on 96-well GF/B filter plates using a PerkinElmer Filtermate-harvester (PerkinElmer, Groningen, The Netherlands). […] In addition, the exact concentration of [^3H]

Test [5] has as its target T1, human A3AR. The experiment in a line: [3H]PSB-11 radioligand competition association (Motulsky and Mahan) in Nluc-A3AR HEK293 membranes. Also noted: expressed in transfected cells. As to conditions: for Kd: read-out: Kinetics pKD (converted). Type of test: binding. On the procedure:
(§3) Prior to all experiments, membranes from HEK293 membranes expressing human Nluc-A3AR were diluted to 20 μg/well in a total volume of 100 μL/well assay buffer (50 mM Tris-HCl, 5 mM MgCl2, supplemented with 0.01% CHAPS and 1 mM EDTA, pH 7.4) and homogenised using an IKA T10 Ultra-Turrax disperser in 3 × 5 s bursts at 15,000 rpm. For equilibrium displacement assays, membranes were placed in 96-well microplates at 10 °C and the required concentration of competing agonist was added in the presence of a final concentration of ~ 10 nM [^3H] […] For association assays, Nluc-A3AR HEK293 membranes were placed at 10 °C in 96-well microplates and the amount of radioligand bound to the receptor was measured at different time points during a total incubation of 120 min. For dissociation experiments, HEK293 membranes expressing human Nluc-A3AR were incubated for 120 min with ~ 10 nM [^3H] […] The competition association assays were initiated by the addition of Nluc-A3AR HEK293 membranes at different time points for a total of 240 min to a total volume of 100 μl/well of assay buffer at 10 °C with ~ 10 nM [^3H] […] For all experiments, incubation was terminated by rapid filtration performed on 96-well GF/B filter plates using a PerkinElmer Filtermate-harvester (PerkinElmer, Groningen, The Netherlands). After drying the filter plate at 50 °C for 30 min, the filter-bound radioactivity was determined by scintillation spectrometry using a 2450 MicroBeta^2 Plate Counter (PerkinElmer, Boston, MA). In addition, the exact concentration of [^3H]
as §1
KA=k1L⋅10^−9+k2KB=k3I⋅10^−9+k4S=KA−KB^2+4⋅k1⋅k3⋅L⋅I⋅10^−18KF=0.5KA+KB+SKS=0.5KA+KB−SQ=Bmax⋅k1⋅L⋅10^−9/KF−KSY=Q⋅k4⋅KF−KS/KF⋅KS+k4−KF/KFe^−KF⋅X−k4−KS/KSe^−KS⋅X where k1 is the kon of the labelled ligand (M^−1 min^−1), k2 is the koff of the labelled ligand (min^−1), L is the concentration of the labelled ligand in nanomolar, I is the concentration of the unlabelled competitor (nM), X is the time (min) and Y is the specific binding of the labelled ligand (NanoBRET ratio or DPM).
as §2
This was borne out in the kinetics parameters obtained from fitting the data to the Motulsky and Mahan model (Table 2).
(In a radioligand displacement assay an active substance lowers the binding of a labelled ligand.)

Test [6] deals with T1, human A3AR. The experiment in a line: NanoBRET equilibrium competition binding with XAC-S-ser-S-tyr-X-BY630 as probe in Nluc-A3AR HEK293 cells. Also noted: expressed in transfected cells.
Test [7] concerns the target T1, human A3AR. In words: NanoBRET association kinetics of fluorescent antagonists in live Nluc-A3AR HEK293 cells. As to conditions: for residence time: read-out: Kinetics RT (residence time); for koff: read-out: Kinetics koff; for kon: read-out: Kinetics kon.
Protocol: (§4) For saturation and competition binding assays, the required concentration of fluorescent ligand and competing ligand was added simultaneously and incubated for 1 h (for AV039) or 3 h (for XAC-S-ser-S-tyr-X-BY630) at 37 °C (no CO2). After 1 h, 10 μM furimazine was added to each well and the plate incubated for 5 min at 37 °C before reading. […] For association kinetic experiments, following the furimazine incubation, the required concentration of fluorescent ligand in the presence or absence of 10 μM MRS1220 was added simultaneously and the plate read immediately once per minute for up to 3 h at 37 °C. For kinetic competition association assays, after furimazine incubation, either XAC-S-ser-S-tyr-X-BY630 (20 nM) or AV039 (40 nM) were added simultaneously with the required concentration of unlabelled ligand or 10 μM MRS1220 to determine non-specific binding and read once per minute for the indicated times at 37 °C. For all NanoBRET experiments, fluorescence and luminescence were read using a PHERAstar FS plate reader (BMG Labtech, Ortenberg, Germany). Filtered light emissions were measured at 460 nm (80 nm band pass) and at > 610 nm (long pass) for the BY630 labelled ligands and at 450 nm (80 nm band pass) and > 550 nm (long pass) for the BYFL labelled ligand. The raw NanoBRET ratio was calculated by dividing the fluorescence emission (610 or 550 nm) by the luminescence emission (460 or 450 nm).
For NanoBRET association kinetic data, non-specific binding was determined in wells with fluorescent ligand plus 10 μM MRS1220 and this was obtained for each concentration of fluorescent ligand at each time point. This was subsequently subtracted from total binding at the equivalent time point. The data were simultaneously fit to the following equations: Y=Ymax1−e^−kobst kon=kobs−koff/L where Ymax equals the level of binding at infinite time (t), kobs is the rate constant for the observed rate of association at a particular concentration of L, [L] is the ligand concentration in molar, koff is the dissociation rate constant of the ligand in per minute and kon is the association rate constant in per molar per minute. From this, the equilibrium dissociation constant (KD) is determined as follows: KD=koff/kon
The target of test [8] is T1, human A3AR. In words: NanoBRET saturation binding of fluorescent antagonists in live Nluc-A3AR HEK293 cells.
Protocol: as §4
NanoBRET total and non-specific saturation binding curves were fitted simultaneously using the following equation: BRET ratio=Bmax.B/B+KD+M.B+C where Bmax is the maximal specific binding achieved, [B] is the concentration of fluorescent ligand, KD is the equilibrium dissociation constant, M is the slope of the non-specific binding component and C is the intercept with the Y-axis.
Initially, we determined the affinity of each of these fluorescent antagonists at NanoLuc tagged A3AR (Nluc-A3AR) in the NanoBRET assay.
Test [9] concerns the target T1, human A3AR. In words: [3H]PSB-11 radioligand association and dissociation in Nluc-A3AR HEK293 membranes. Type of test: binding. Also on record: expressed in transfected cells. As to conditions: 10 °C. On the procedure: as §3
To confirm the differences in the kinetics observed with AV039 and XAC-S-ser-S-tyr-X-BY630, radioligand equilibrium and kinetic binding assays in membranes from HEK293 cells stably expressing Nluc-A3AR were undertaken.

The target of test [10] is T1, human A3AR. In words: [3H]PSB-11 saturation binding (KD used for the Ki calculation). Also noted: expressed in transfected cells. As to conditions: radioligand, saturation binding assay of this study, read-out: KD, equilibrium dissociation constant of the labelled ligand.
The mark [11] stands for this setting: NanoBRET competition association with 40 nM AV039, Nluc-A3AR HEK293 cells, 37 °C.
Where [12] appears, read: read-out: Kinetics koff (converted).
Where [13] appears, read: read-out: Kinetics kon (converted).
Setting [14] is: association and dissociation curves of 10 nM [3H]PSB-11, Nluc-A3AR HEK293 membranes.

On to `CC[C@@H]1CN2C(=O)N(C)c3nc(-c4ccccc4)[nH]c3C2=N1` [PSB-11], for which the “Kinetics RT (probe AV039)” value in test [1] (37 °C) worked out at 6.6 ± 1.3 min. For the same compound, the “Kinetics RT (probe XAC-S-ser-S-tyr-X-BY630)” value in test [2] (37 °C) was 22.4 ± 6.1 min.

On to `COc1ccn2c(c1)nc1c2c(=O)[nH]c(=O)n1Cc1ccccc1` [compound 5, 1-Benzyl-8-methoxy-1H,3H-pyrido[2,1-f]purine-2,4-dione], for which the koff (commonly a measure of how fast the partners let go of each other) in [1] (NanoBRET competition association with 40 nM AV039, Nluc-A3AR HEK293 cells, 37 °C, read-out: Kinetics koff (probe AV039) (converted)) is 0.0235 s⁻¹; in [2] (read-out: Kinetics koff (probe XAC-S-ser-S-tyr-X-BY630)), 0.000783 s⁻¹; in [5] (setting [12]) it was 0.0033 s⁻¹. The kon (as a rule, the second-order rate constant of association) in [1] (NanoBRET competition association with 40 nM AV039, Nluc-A3AR HEK293 cells, 37 °C, read-out: Kinetics kon (probe AV039) (converted)) is 183000 M⁻¹ s⁻¹; in test [2] (read-out: Kinetics kon (probe XAC-S-ser-S-tyr-X-BY630)), 2670 M⁻¹ s⁻¹; in test [5] (setting [13]), 110000 M⁻¹ s⁻¹. In addition, the Kd in test [1] (setting [11]) is 123 nM; in [2], 288 nM; in test [5], 29.5 nM. For the same compound, in test [1] (37 °C), the “Kinetics RT (probe AV039)” value came to 1.1 ± 0.4 min. For the same compound, the Ki in test [3] was 89.1 nM; in [4] it was 44.7 nM; in test [6], 832 nM. In addition, the “Kinetics RT (probe XAC-S-ser-S-tyr-X-BY630)” value in test [2] (37 °C) was 23.2 ± 3.6 min.

With `COc1cccc(Cn2c(=O)n(CC3CC3)c(=O)c3c2nc2cc(OC)ccn23)c1` [LUF7565], the Kd is 6.76 nM in [1] (setting [11]), 13.5 nM in test [2] and 0.776 nM in test [5]. For the same compound, the koff in [1] (read-out: Kinetics koff (probe AV039)) is 0.00025 s⁻¹; in test [2] (NanoBRET competition association with 20 nM XAC-S-ser-S-tyr-X-BY630, Nluc-A3AR HEK293 cells, 37 °C, read-out: Kinetics koff (probe XAC-S-ser-S-tyr-X-BY630) (converted)) it was 0.000367 s⁻¹; in test [5] (read-out: Kinetics koff) it was 0.000108 s⁻¹. Moreover, the kon is 44700 M⁻¹ s⁻¹ in test [1] (read-out: Kinetics kon (probe AV039)); 26800 M⁻¹ s⁻¹ in test [2] (NanoBRET competition association with 20 nM XAC-S-ser-S-tyr-X-BY630, Nluc-A3AR HEK293 cells, 37 °C, read-out: Kinetics kon (probe XAC-S-ser-S-tyr-X-BY630) (converted)); 136000 M⁻¹ s⁻¹ in test [5] (read-out: Kinetics kon). Moreover, the “Kinetics RT (probe AV039)” value in test [1] (37 °C) was determined as 72.9 ± 8.3 min. Moreover, the figures for the Ki in test [3], in test [4] and in test [6] were 11.7 nM, 1.02 nM and 100 nM, respectively. For the same compound, the “Kinetics RT (probe XAC-S-ser-S-tyr-X-BY630)” value in test [2] (37 °C) is listed as 49.2 ± 6.7 min.

As to `CCCn1c(=O)c2[nH]c(-c3ccc(OCC(=O)NCCNC(=O)[C@H](CO)NC(=O)[C@H](Cc4ccc(O)cc4)NC(=O)CCCCCNC(=O)COc4ccc(/C=C/C5=[N+]6C(=Cc7ccc(-c8cccs8)n7[B-]6(F)F)C=C5)cc4)cc3)nc2n(CCC)c1=O` [XAC-S-ser-S-tyr-X-BY630], the Kd in test [7] was 2.69 nM; in test [8], 3.09 nM; in [5] it was 18.2 nM. Moreover, the residence time in [7] is 288 ± 62 min; in [5] (read-out: RT (residence time)), above 450 min. The koff is 7.17e-05 s⁻¹ in test [7] and 3.83e-05 s⁻¹ in [5] (setting [12]). In addition, the association rate constant (kon) in [7] was 27700 M⁻¹ s⁻¹; in [5] (setting [13]), 2330 M⁻¹ s⁻¹. The Ki in test [4] was 61.7 nM.

As to `COc1ccc(-n2nc3c(NC(=O)CCC(=O)NCCOCCOCCNC(=O)CCCCCNC(=O)COc4ccc(/C=C/C5=[N+]6C(=Cc7ccc(-c8cccs8)n7[B-]6(F)F)C=C5)cc4)nc4ccccc4n3c2=O)cc1` [AV039], the Kd in test [7] is 44.7 nM; in test [8], 7.76 nM; in test [5], 23.4 nM. In addition, the residence time in [7] was found to be 6.8 ± 0.8 min. Further, the results for the koff in test [7] and in test [5] (setting [12]) were 0.0025 s⁻¹ and 0.00127 s⁻¹, respectively. Moreover, the values for the kon in test [7] and in test [5] (setting [13]) were 61200 M⁻¹ s⁻¹ and 54500 M⁻¹ s⁻¹, respectively. In [4], the Ki is 22.4 nM.

As for `CCCn1c(=O)c2[nH]c(-c3ccc(OCC(=O)NCCNC(=O)[C@H](CO)NC(=O)[C@H](Cc4ccc(O)cc4)NC(=O)CCCCCNC(=O)CCc4ccc5n4[B-](F)(F)[N+]4=C(C)C=C(C)C4=C5)cc3)nc2n(CCC)c1=O` [XAC-S-ser-S-tyr-X-BYFL], in [7], the Kd was 17.8 nM, the residence time came to 14.9 ± 1.1 min, the off-rate (koff) was 0.00115 s⁻¹ and the association rate constant (kon) is 65800 M⁻¹ s⁻¹. This compound also had a Kd in test [8] of 16.6 nM.

In the case of “[^3H]8-Ethyl-4-methyl-2-phenyl-(8R)-4,5,7,8-tetrahydro-1H-imidazo[2,1-i]-purin-5-one [[^3H]PSB-11]”, in test [9] (setting [14]), the Kinetics kon is 2.75 ± 0.52 × 10^6 M^−1 min^−1 and the “Kinetics pKD” value turned out to be 8.04 ± 0.08. The compound further showed a Kinetics koff in test [9] (association and dissociation curves of 10 nM [3H]PSB-11, dissociation initiated with 10 μM PSB-11, membranes) of 0.000383 ± 3.3e-05 s⁻¹. Besides, in test [9] (reciprocal of koff, 10 nM [3H]PSB-11, Nluc-A3AR HEK293 membranes), the “Kinetics RT (residence time)” value was determined as 44.6 ± 3.9 min. Besides, the Kd in [10] is 9.9 nM.

Source of the values: publication PMC6635573, “A live cell NanoBRET binding assay allows the study of ligand-binding kinetics to the adenosine A3 receptor” (Purinergic Signalling, 2019).
